Data taken from US7592160B2, “Processes for producing isomaltose and isomaltitol and use thereof” (Kabushiki Kaisha Hayashibara Seibutsu Kagaku Kenkyujo, priority 2001, dated 2009).

Key:
[1] = test system: α-isomaltosylglucosaccharide-forming enzyme; test: Influence of metal ions on α-isomaltosylglucosaccharide-forming enzyme activity (C11 strain); assay type: biochemical, Bacillus globisporus C11 strain
[2] = test system: α-isomaltosyl-transferring enzyme; test: Influence of metal ions on α-isomaltosyl-transferring enzyme activity (C9 strain); assay type: biochemical, Bacillus globisporus C9 strain; conditions: in the presence of 1 mM of each metal-ion; None = 100
Experimental: (§1) The activity of α-isomaltosyl-transferring enzyme was assayed by dissolving panose in 100 mM acetate buffer (pH 6.0) to give a concentration of 2% (w/v) for a substrate solution, adding a 0.5 ml of an enzyme solution to 0.5 ml of the substrate solution, enzymatically reacting the mixture solution at 35° C. for 30 min, suspending the enzymatic reaction by boiling the solution for 10 min, and quantifying glucose, among the cyclotetrasaccharide and glucose formed mainly in the reaction mixture, by the glucose oxidase method. One unit activity of α-isomaltosyl-transferring enzyme is defined as the enzyme amount that forms one micromole of glucose per minute under the above enzymatic reaction conditions. Throughout the specification, the enzymatic activity of α-isomaltosyl-transferring enzyme means the unit(s) assayed as above.
(§2) The influence of metal ions on the activity of α-isomaltosyl-transferring enzyme was examined in the presence of 1 mM of each metal-ion according to the assay for its enzyme activity.

[3] = test system: α-isomaltosylglucosaccharide-forming enzyme; test: Influence of metal ions on α-isomaltosylglucosaccharide-forming enzyme activity (C9 strain); assay type: biochemical, Bacillus globisporus C9 strain
Experimental: (§3) About 20 L of a fresh preparation of the same liquid culture medium as used in the above seed culture were placed in a 30-L fermentor, sterilized by heating, and then cooled to 27° C. and inoculated with 1% (v/v) of the seed culture, followed by culturing at 27° C. and pH 6.0 to 8.0 for 48 hours under aeration-agitation conditions. […] These activities were assayed as follows: The activity of α-isomaltosylglucosaccharide-forming enzyme was assayed by dissolving maltotriose in 100 mM acetate buffer (pH 6.0) to give a concentration of 2% (w/v) for a substrate solution, adding a 0.5 ml of an enzyme solution to a 0.5 ml of the substrate solution, enzymatically reacting the mixture solution at 35° C. for 60 min, suspending the enzymatic reaction by boiling the solution for 10 min, and quantifying maltose, among the isomaltosyl maltose and maltose formed mainly in the reaction mixture, on HPLC disclosed in Experiment 1. One unit activity of α-isomaltosylglucosaccharide-forming enzyme is defined as the enzyme amount that forms one micromole of maltose per minute under the above enzymatic reaction conditions. Throughout the specification, the enzymatic activity of α-isomaltosylglucosaccharide-forming enzyme means the unit(s) assayed as above.
(§4) The influence of metal ions on the activity of α-isomaltosylglucosaccharide-forming enzyme was examined in the presence of 1 mM of each metal-ion according to the assay for its enzyme activity.

[4] = test system: α-isomaltosylglucosaccharide-forming enzyme; test: Influence of metal ions on α-isomaltosylglucosaccharide-forming enzyme activity (N75 strain); assay type: biochemical, Bacillus globisporus N75 strain
Experimental: as §3, §4

[5] = test system: α-isomaltosyl-transferring enzyme; test: Influence of metal ions on α-isomaltosyl-transferring enzyme activity (S1 strain); assay type: biochemical, Arthrobacter ramosus S1 strain; conditions: in the presence of 1 mM of each metal-ion; None = 100
Experimental: as §1, §2

[6] = test system: α-isomaltosyl-transferring enzyme; test: Influence of metal ions on α-isomaltosyl-transferring enzyme activity (C11 strain); assay type: biochemical, Bacillus globisporus C11 strain; conditions: in the presence of 1 mM of each metal-ion; None = 100
Experimental: as §1, §2

[7] = test system: α-isomaltosylglucosaccharide-forming enzyme; test: Influence of metal ions on α-isomaltosylglucosaccharide-forming enzyme activity (A19 strain); assay type: biochemical, Arthrobacter globiformis A19 strain; conditions: in the presence of 1 mM of each metal-ion; None = 100
[8] = test system: α-isomaltosyl-transferring enzyme; test: Influence of metal ions on α-isomaltosyl-transferring enzyme activity (N75 strain); assay type: biochemical, Bacillus globisporus N75 strain; conditions: in the presence of 1 mM of each metal-ion; None = 100
Experimental: as §1
The influence of temperature and pH on the activity of α-isomaltosyl-transferring enzyme was examined in accordance with the assay for its enzyme activity. […] The thermal stability of the enzyme was determined by incubating the testing enzyme solutions in the form of 20 mM acetate buffer (pH 6.0) at prescribed temperatures for 60 min, cooling the resulting enzyme solutions with water, and assaying the remaining enzyme activity of each solution. The pH stability of the enzyme was determined by keeping the testing enzyme solutions in the from of 50 mM buffers having prescribed pHs at 4° C. for 24 hours, adjusting the pH of each solution to 6.0, and assaying the remaining enzyme activity of each solution. […] The influence of metal ions on the activity of α-isomaltosyl-transferring enzyme was examined in the presence of 1 mM of each metal-ion according to the assay for its enzyme activity.

[9] = test system: α-isomaltosylglucosaccharide-forming enzyme; test: Transfer-acceptor specificity, enzyme of C11 strain; assay type: biochemical, Bacillus globisporus C11 strain; conditions: acceptor 1.6%, PINE-DEX #100 donor 4%, one unit/g donor, 30° C., pH 6.0, 24 hours
How it was run: (§5)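 Acceptor saccharides at 1.6% with partial starch hydrolyzate donor at 4% and purified enzyme at 1 unit/g donor, d.s.b., 30 °C, 24 h, pH 6.0 (pH 8.4 for A19 enzyme). Transfer products of mono- and disaccharide acceptors analysed by GLC, of trisaccharide acceptors by HPLC with refractometer detection.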

[10] = test system: α-isomaltosylglucosaccharide-forming enzyme; test: Action on saccharides as substrates (TLC), enzyme of A19 strain; assay type: biochemical, Arthrobacter globiformis A19 strain; set-up: key: −: it showed no change; +: it showed a slight reduction of the color spot of the substrate and the formation of other reaction product; ++: it showed a high reduction of the color spot of the substrate and the formation of other reaction product; +++: it showed a substantial disappearance of the substrate spot and the formation of other reaction product; conditions: two units/g substrate, substrate 2% (w/v), 30° C., pH 8.4, 24 hours
Excerpt: (§6) To examine the saccharides in the supernatant, they were separated by developing twice on silica gel thin-layer chromatography (abbreviated as “TLC” hereinafter) using, as a developer, a mixture solution of n-butanol, pyridine, and water (=6:4:1 by volume), and, as a thin-layer plate, “[…]™ 60”, an aluminum plate (20×20 cm) for TLC commercialized by Merck & Co., Inc., Rahway, USA. The coloration of the separated total sugars by the sulfuric acid-methanol method and that of the reducing saccharides by the diphenylamine-aniline method detected a non-reducing saccharide positive at an Rf value of about 0.31 on the former detection method but negative on the latter detection method.
(§7) It was tested whether any saccharides can be used as substrates for α-isomaltosylglucosaccharide-forming enzyme. For the purpose, a solution of maltose, maltotriose, maltotetraose, maltopentaose, maltohexaose, maltoheptaose, isomaltose, isomaltotriose, panose, isopanose, α,α-trehalose, kojibiose, nigerose, neotrehalose, cellobiose, gentibiose, maltitol, maltotriitol, lactose, sucrose, erlose, selaginose, maltosyl glucoside, or isomaltosyl glucoside was prepared.
(§8) To each of the above solutions was added two units/g substrate of a purified specimen of α-isomaltosylglucosaccharide-forming enzyme from either Bacillus globisporus C9 strain obtained by the method in Experiment 4-2, Bacillus globisporus C11 strain obtained by the method in Experiment 7-2, Bacillus globisporus N75 strain obtained by the method in Experiment 11-2, or Arthrobacter globiformis A19 strain obtained by the method in Experiment 15-2, and the resulting each solution was adjusted to give a substrate concentration of 2% (w/v) and incubated at 30° C. and pH 6.0 for 24 hours, except for using pH 8.4 for the enzyme from Arthrobacter globiformis A19 strain. The enzyme solutions before and after the enzymatic reactions were respectively analyzed on TLC disclosed in Experiment 1 to confirm whether the enzymes acted on these substrates.

[11] = test system: α-isomaltosylglucosaccharide-forming enzyme; test: Action on saccharides as substrates (TLC), enzyme of C11 strain; assay type: biochemical, Bacillus globisporus C11 strain; set-up: key: −: it showed no change; +: it showed a slight reduction of the color spot of the substrate and the formation of other reaction product; ++: it showed a high reduction of the color spot of the substrate and the formation of other reaction product; +++: it showed a substantial disappearance of the substrate spot and the formation of other reaction product; conditions: two units/g substrate, substrate 2% (w/v), 30° C., pH 6.0, 24 hours
Excerpt: as §6, §7, §8

[12] = test system: α-isomaltosylglucosaccharide-forming enzyme; test: Transfer-acceptor specificity, enzyme of A19 strain; assay type: biochemical, Arthrobacter globiformis A19 strain; conditions: acceptor 1.6%, PINE-DEX #100 donor 4%, one unit/g donor, 30° C., pH 8.4, 24 hours
How it was run: as §5

[13] = test system: α-isomaltosylglucosaccharide-forming enzyme; test: Action on saccharides as substrates (TLC), enzyme of N75 strain; assay type: biochemical, Bacillus globisporus N75 strain; set-up: key: −: it showed no change; +: it showed a slight reduction of the color spot of the substrate and the formation of other reaction product; ++: it showed a high reduction of the color spot of the substrate and the formation of other reaction product; +++: it showed a substantial disappearance of the substrate spot and the formation of other reaction product; conditions: two units/g substrate, substrate 2% (w/v), 30° C., pH 6.0, 24 hours
Excerpt: as §6, §7, §8

[14] = test system: α-isomaltosylglucosaccharide-forming enzyme; test: Action on saccharides as substrates (TLC), enzyme of C9 strain; assay type: biochemical, Bacillus globisporus C9 strain; set-up: key: −: it showed no change; +: it showed a slight reduction of the color spot of the substrate and the formation of other reaction product; ++: it showed a high reduction of the color spot of the substrate and the formation of other reaction product; +++: it showed a substantial disappearance of the substrate spot and the formation of other reaction product; conditions: two units/g substrate, substrate 2% (w/v), 30° C., pH 6.0, 24 hours
Excerpt: as §6, §7, §8

[15] = test system: α-isomaltosylglucosaccharide-forming enzyme; test: Transfer-acceptor specificity, enzyme of N75 strain; assay type: biochemical, Bacillus globisporus N75 strain; conditions: acceptor 1.6%, PINE-DEX #100 donor 4%, one unit/g donor, 30° C., pH 6.0, 24 hours
How it was run: as §5

[16] = test system: α-isomaltosylglucosaccharide-forming enzyme; test: Transfer-acceptor specificity, enzyme of C9 strain; assay type: biochemical, Bacillus globisporus C9 strain; conditions: acceptor 1.6%, PINE-DEX #100 donor 4%, one unit/g donor, 30° C., pH 6.0, 24 hours
How it was run: as §5

[17] = in the presence of 1 mM of each metal-ion, None = 100

Structure (SMILES) | effect on the enzyme activity, in words ([1]; 1 mM, Table 7) | Relative activity (%) [1, 17] [%] | Relative activity (%) [2] [%] | effect on the enzyme activity, in words ([3]; 1 mM, Table 3) | Relative activity (%) [3, 17] [%] | effect on the enzyme activity, in words ([4]; 1 mM, Table 13) | Relative activity (%) [4, 17] [%] | Enzymatic action, Enzyme of A19 strain [10] | Enzymatic action, Enzyme of C11 strain [11] | Enzymatic action, Enzyme of N75 strain [13] | Enzymatic action, Enzyme of C9 strain [14] | Relative activity (%) [5] [%] | Relative activity (%) [6] [%] | Relative activity (%) [7] [%] | Relative activity (%) [8] [%] | Product of transferring reaction, Enzyme of C11 strain [9] | Product of transferring reaction, Enzyme of A19 strain [12] | Product of transferring reaction, Enzyme of N75 strain [15] | Product of transferring reaction, Enzyme of C9 strain [16]
[Mn+2] [Mn^2+] | activated | 142 | 106 | activated | 111 | activated | 120 |  |  |  |  |  |  |  |  |  |  |  | 
[Ni+2] [Ni^2+] |  |  | 102 |  |  |  |  |  |  |  |  | 87 | 89 | 46 | 91 |  |  |  | 
[Al+3] [Al^3+] |  |  | 103 |  |  |  |  |  |  |  |  | 93 | 89 | 37 | 94 |  |  |  | 
O=C[C@H](O)[C@@H](O)[C@H](O[C@@H]1O[C@H](CO)[C@@H](O)[C@H](O)[C@H]1O)[C@H](O)CO [Cellobiose, cellobiose] |  |  |  |  |  |  |  | − | − | − | − |  |  |  |  | ++ (a saccharide-transferred product was detected in an amount over ten percent through transfer reaction to acceptor) | ++ (a saccharide-transferred product was detected in an amount over ten percent through transfer reaction to acceptor) | ++ (a saccharide-transferred product was detected in an amount over ten percent through transfer reaction to acceptor) | ++ (a saccharide-transferred product was detected in an amount over ten percent through transfer reaction to acceptor)

Further lines, with some results ahead:

effect on the enzyme activity, in words ([1]; 1 mM, Table 7) | Relative activity (%) [1, 17] [%] | Relative activity (%) [2] [%] | effect on the enzyme activity, in words ([3]; 1 mM, Table 3) | Relative activity (%) [3, 17] [%] | effect on the enzyme activity, in words ([4]; 1 mM, Table 13) | Relative activity (%) [4, 17] [%] | Enzymatic action, Enzyme of A19 strain [10] | Enzymatic action, Enzyme of C11 strain [11] | Enzymatic action, Enzyme of N75 strain [13] | Enzymatic action, Enzyme of C9 strain [14] | Structure (SMILES) | Relative activity (%) [5] [%] | Relative activity (%) [6] [%] | Relative activity (%) [7] [%] | Relative activity (%) [8] [%] | Product of transferring reaction, Enzyme of C11 strain [9] | Product of transferring reaction, Enzyme of A19 strain [12] | Product of transferring reaction, Enzyme of N75 strain [15] | Product of transferring reaction, Enzyme of C9 strain [16]
 |  |  |  |  |  |  | − | − | − | − | OC[C@H]1O[C@H](OC[C@H]2OC(O)[C@H](O)[C@@H](O)[C@@H]2O)[C@H](O)[C@@H](O)[C@@H]1O (some centres unmarked) [Isomaltose, isomaltose] |  |  |  |  | ++ (a saccharide-transferred product was detected in an amount over ten percent through transfer reaction to acceptor) | + (a saccharide-transferred product was detected in an amount over one percent but less than 10% through transfer reaction to acceptor) | ++ (a saccharide-transferred product was detected in an amount over ten percent through transfer reaction to acceptor) | ++ (a saccharide-transferred product was detected in an amount over ten percent through transfer reaction to acceptor)
 |  |  |  |  |  |  | − | − | − | − | OC[C@H]1O[C@H](O[C@H]2O[C@H](CO)[C@@H](O)[C@H](O)[C@H]2O)[C@H](O)[C@@H](O)[C@@H]1O [Trehalose, α,α-trehalose] |  |  |  |  | ++ (a saccharide-transferred product was detected in an amount over ten percent through transfer reaction to acceptor) | ++ (a saccharide-transferred product was detected in an amount over ten percent through transfer reaction to acceptor) | ++ (a saccharide-transferred product was detected in an amount over ten percent through transfer reaction to acceptor) | ++ (a saccharide-transferred product was detected in an amount over ten percent through transfer reaction to acceptor)
